Patent US10604528B2, “Galunisertib crystalline form, preparation method thereof and use thereof” (Crystal Pharmaceutical (Suzhou) Co., Ltd., priority 2016, dated 2020)
Converted amounts (≈) assume the structure as drawn. “Also recorded” adds a separate entry of the source. Where two headings read alike, the source gives them in different places.

Columns and labels:
Type in all cases: physicochemical
[1] = Particle size distribution (laser particle size analyzer, wet process)
Method: The particle size distribution test in the present disclosure is acquired by the S3500 laser particle size analyzer of Microtrac. Microtrac S3500 is equipped with the SDC (Sample Delivery Controller). The test is carried out by wet process, and the dispersion medium is Isopar G. The parameters are as follow: […]

[2] = Hygroscopicity by dynamic vapor sorption (DVS); settings: for Hygroscopicity class / Weight gain at 80% RH: 80% RH; for Hygroscopicity class: Chinese Pharmacopoeia 2015 definition; for Weight gain at 80% RH / Weight gain at 95% RH: DVS
Method: Dynamic vapor sorption (DVS) was applied to test hygroscopicity of Form A and Form 1 disclosed in WO2007018818A1 with about 10 mg of samples.
Description and definition of hygroscopicity (Chinese Pharmacopoeia 2015 edition, 9103 General drug hygroscopic test guidelines, test at 25° C.±1° C., 80% RH).

[3] = Long-term and accelerated solid-state stability (XRPD)
Method: Solid samples of Form A and Form 1 were stored under different conditions of 25° C./60% RH, 40° C./75% RH. 60° C./75% RH and 80° C.

[4] = Kinetic solubility in FaSSIF, FeSSIF and water (HPLC)
Method: Form A of the present disclosure and Form 1 of the prior art were suspended into FaSSIF (Fasted state simulated intestinal fluids, pH=6.5), FeSSIF (Fed state simulated intestinal fluids, pH=5.0), SGF (Simulated gastric fluids, pH=1.8) and water to get saturated solutions. After equilibrated for 1 h, 4 h and 24 h, concentrations of the saturated solutions were measured by HPLC.

[5] = Mechanical stability (manual grinding, XRPD); settings: ground manually for 5 minutes in mortar
Method: Solid sample of Form A of the present disclosure was ground manually for 5 minutes in mortar. The XRPD pattern overlay of the solids before and after grinding is substantially as depicted in FIG. 9 (top: XRPD pattern before grinding, bottom: XRPD pattern after grinding).

Row | Compound | D10 ([1]; ultrasonication time 0 s) [μm] | D50 ([1]; ultrasonication time 0 s) [μm] | D90 ([1]; ultrasonication time 0 s) [μm] | MV (average particle size calculated by volume) ([1]; ultrasonication time 0 s) [μm] | D10 ([1]; ultrasonication time 30 s) [μm] | D50 ([1]; ultrasonication time 30 s) [μm] | D90 ([1]; ultrasonication time 30 s) [μm] | MV (average particle size calculated by volume) ([1]; ultrasonication time 30 s) [μm] | D10 ([1]; ultrasonication time 60 s) [μm] | D50 ([1]; ultrasonication time 60 s) [μm] | D90 ([1]; ultrasonication time 60 s) [μm] | MV (average particle size calculated by volume) ([1]; ultrasonication time 60 s) [μm] | D10 ([1]; ultrasonication time 90 s) [μm] | D50 ([1]; ultrasonication time 90 s) [μm] | D90 ([1]; ultrasonication time 90 s) [μm] | MV (average particle size calculated by volume) ([1]; ultrasonication time 90 s) [μm] | Hygroscopicity class [2] | Weight gain at 80% RH [2] [%] | Weight gain at 95% RH [2] [%] | Solid form after storage ([3]; 25° C./60% RH, 12 months) | further results
1 | Cc1cccc(-c2nn3c(c2-c2ccnc4ccc(C(N)=O)cc24)CCC3)n1 [Form 1, 2-(6-methyl-pyridin-2-yl)-3-[6-amido-quinolin-4-yl)-5,6-dihydro-4H-pyrrolo[1,2-b]pyrazole, reference compound] | 33.41 | 56.97 | 95.11 | 62.25 | 24.89 | 42.56 | 68.40 | 45.75 | 22.40 | 37.88 | 59.87 | 40.41 | 20.94 | 35.58 | 55.95 | 37.83 | slightly hygroscopic | 0.33 | 0.53 | Form 1 | Solid form after storage ([3]; 40° C./75% RH, 12 months): Form 1; Solid form after storage ([3]; 60° C./75% RH, 2 weeks): Form 1; Solid form after storage ([3]; 80° C., 2 weeks): partially converts to Form A; also recorded: Form 1 + Form A; solubility ([4]; FaSSIF and water, pH 6.5, fassif, thermodynamic from solid, in both FaSSIF and H2O, all sampling points, read-out: solubility): < 60 µg/mL; solubility ([4]; FaSSIF pH=6.5, 1 h): 58 µg/mL (≈ 157 µM); solubility ([4]; FaSSIF pH=6.5, 4 h): 51 µg/mL (≈ 138 µM); solubility ([4]; FaSSIF pH=6.5, 24 h): 52 µg/mL (≈ 141 µM); solubility ([4]; FeSSIF pH=5.0, 1 h): 120 µg/mL (≈ 325 µM); solubility ([4]; FeSSIF pH=5.0, 4 h): 110 µg/mL (≈ 298 µM); solubility ([4]; FeSSIF pH=5.0, 24 h): 120 µg/mL (≈ 325 µM); solubility ([4]; H2O, 1 h): 56 µg/mL (≈ 152 µM); solubility ([4]; H2O, 4 h): 55 µg/mL (≈ 149 µM); solubility ([4]; H2O, 24 h): 55 µg/mL (≈ 149 µM)
2 | Cc1cccc(-c2nn3c(c2-c2ccnc4ccc(C(N)=O)cc24)CCC3)n1 [Form A, 2-(6-methyl-pyridin-2-yl)-3-[6-amido-quinolin-4-yl)-5,6-dihydro-4H-pyrrolo[1,2-b]pyrazole] | 50.28 | 170.3 | 356.4 | 190.8 | 34.37 | 106.2 | 210.5 | 116.1 | 29.37 | 92.81 | 192.2 | 104.1 | 26.40 | 83.69 | 167.2 | 91.94 | non-hygroscopic or almost non-hygroscopic | 0.15 | 0.23 | Form A | Solid Form after DVS test ([2]; XRPD after DVS test): does not change after DVS test; also recorded: Form A (no change); Time the form keeps stable ([3]; 25° C./60% RH and 40° C./75% RH): at least 12 months; Solid form after storage ([3]; 40° C./75% RH, 12 months): No form change; also recorded: Form A; Time the form keeps stable ([3]; 60° C./75% RH and 80° C.): at least 2 weeks; Solid form after storage ([3]; 60° C./75% RH, 2 weeks): Form A; Solid form after storage ([3]; 80° C., 2 weeks): Form A; Crystalline form (XRPD pattern) after grinding [5]: doesn't change significantly; also recorded: No form change; solubility ([4]; FaSSIF pH=6.5, 1 h): 230 µg/mL (≈ 623 µM); solubility ([4]; FaSSIF pH=6.5, 4 h): 270 µg/mL (≈ 731 µM); solubility ([4]; FaSSIF pH=6.5, 24 h): 520 µg/mL (≈ 1410 µM); solubility relative to Form 1 ([4]; FaSSIF pH=6.5, 24 h): ten times higher than that of Form 1; solubility ([4]; FeSSIF pH=5.0, 1 h): 480 µg/mL (≈ 1300 µM); solubility ([4]; FeSSIF pH=5.0, 4 h): 820 µg/mL (≈ 2220 µM); solubility ([4]; FeSSIF pH=5.0, 24 h): 640 µg/mL (≈ 1730 µM); solubility ([4]; H2O, 1 h): 170 µg/mL (≈ 460 µM); solubility ([4]; H2O, 4 h): 250 µg/mL (≈ 677 µM); solubility ([4]; H2O, 24 h): 310 µg/mL (≈ 839 µM)
